The record followed here is article PMC5473336 (Journal of medicinal chemistry, 2016).

“Also recorded” adds a separate entry of the source.

Test [1] concerns the target T1, RAD51 (Homo sapiens, UniProt Q06609).
T1 sequence (Q06609 1-339): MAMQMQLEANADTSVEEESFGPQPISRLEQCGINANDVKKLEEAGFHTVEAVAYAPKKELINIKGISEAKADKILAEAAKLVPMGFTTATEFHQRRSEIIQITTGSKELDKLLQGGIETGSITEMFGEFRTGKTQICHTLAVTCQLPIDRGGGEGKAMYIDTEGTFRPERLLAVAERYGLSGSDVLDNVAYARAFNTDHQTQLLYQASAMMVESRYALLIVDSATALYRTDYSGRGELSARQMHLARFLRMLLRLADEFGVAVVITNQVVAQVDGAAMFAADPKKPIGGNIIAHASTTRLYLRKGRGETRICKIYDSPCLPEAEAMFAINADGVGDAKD
In words: Fluorescence polarization-based RAD51-DNA binding assay. As to conditions: for ssDNA binding IC50: Stim: compound is a stimulator. On the technique in general: In fluorescence polarisation assays a small probe gives low polarisation when free and higher when bound to something large.

The target of test [2] is T1, RAD51. Put plainly: Gel-based D-loop assay. Type of test: biochemical.
In test [3] the test system is 293-DR-GFP cells. In words: DR-GFP assay of cellular HR activity. Type of test: cell-based, human. Particulars: 24 h, relative to 1 and 8.

With `Nc1ccc(-c2nc3cc(OCCF)ccc3n3cccc23)cc1` [Compound 15b, 4-(7-(2-Fluoroethoxy)pyrrolo[1,2-a]quinoxalin-4-yl)aniline], in test [1], the “influence on RAD51-ssDNA binding (in words)” value (from here on “influence”) is given as “stimulators; also recorded: modest effects” and the “ssDNA binding IC50” value was “Stim”.
On to `O=[N+]([O-])c1ccc(-c2nc3ccccc3n3cccc23)cc1` [Compound 9f, 4-(4-Nitrophenyl)pyrrolo[1,2-a]quinoxaline], for which the “D-loop inhibitory activity (in words)” value in test [2] is “significantly decreased”.
As for `CN(C)c1ccc(-c2nc3cc(F)c(F)cc3n3cccc23)cc1` [Compound 12m, 4-(7,8-Difluoropyrrolo[1,2-a]quinoxalin-4-yl)-N,N-dimethylaniline], the “D-loop inhibitory activity (in words)” value in test [2] is “nearly absent”. Also, in test [1], the “ssDNA binding IC50” value was “Stim”.
`O=[N+]([O-])c1cccc(-c2nc3ccccc3n3cccc23)c1` [Compound 9b, 4-(3-Nitrophenyl)pyrrolo[1,2-a]quinoxaline]: the “influence” value in test [1] was “modest influence”.
Turning to `CN(C)c1ccc(-c2nc3cc(F)ccc3n3cccc23)cc1` [Compound 12j, 4-(7-Fluoropyrrolo[1,2-a]quinoxalin-4-yl)-N,N-dimethylaniline], in test [2], the “D-loop inhibitory activity (in words)” value is on record as “nearly absent”. For the same compound, the “ssDNA binding IC50” value in test [1] is recorded as “Stim”.
`Nc1cccc(-c2nc3ccccc3n3cccc23)c1` [Compound 9c, 3-(Pyrrolo[1,2-a]quinoxalin-4-yl)aniline]: the “D-loop inhibitory activity (in words)” value in test [2] is given as “decreased”.
Regarding `c1ccc2c(-c3nc4ccccc4n4cccc34)cccc2c1` [Compound 11d, 4-(Naphthalen-1-yl)pyrrolo[1,2-a]quinoxaline], the “D-loop inhibitory activity (in words)” value in test [2] is given as “weak”. In test [1], the “influence” value is on record as “modest influence” and the “ssDNA binding IC50” value is “Stim”.
`COc1ccc2c(c1)nc(-c1ccc([N+](=O)[O-])cc1)c1cccn12` [Compound 12b, 7-Methoxy-4-(4-nitrophenyl)pyrrolo[1,2-a]quinoxaline]: in test [1], the “influence” value was “stimulators” and the “ssDNA binding IC50” value was “Stim”.
For the compound `COc1ccc2c(c1)nc(-c1ccc(N)cc1)c1cccn12` [Compound 12c, 4-(7-Methoxypyrrolo[1,2-a]quinoxalin-4-yl)aniline], the “influence” value in test [1] was “only weakly influenced”.
With `c1cncc(-c2nc3ccccc3n3cccc23)c1` [Compound 11a, 4-(Pyridin-3-yl)pyrrolo[1,2-a]quinoxaline], the “D-loop inhibitory activity (in words)” value in test [2] is given as “moderate”.
With `FC(F)(F)Oc1ccc(-c2nc3ccccc3n3cccc23)cc1` [Compound 9e, 4-(4-(Trifluoromethoxy)phenyl)pyrrolo[1,2-a]quinoxaline], the “D-loop inhibitory activity (in words)” value in test [2] is recorded as “significantly decreased”. For the same compound, in test [1], the “ssDNA binding IC50” value was “Stim”.
With `COc1ccc2c(c1)nc(-c1cccnc1)c1cccn12` [Compound 13a, 7-Methoxy-4-(pyridin-3-yl)pyrrolo[1,2-a]quinoxaline], the “D-loop inhibitory activity (in words)” value in test [2] is reported as “slight improvement”.
As for `C1=C(c2nc3ccccc3n3cccc23)CCCC1` [Compound 11c, 4-(Cyclohex-1-en-1-yl)pyrrolo[1,2-a]quinoxaline], the “D-loop inhibitory activity (in words)” value in test [2] was “weak”. In test [1], the “influence” value is given as “modest influence” and the “ssDNA binding IC50” value is recorded as “Stim”.
As to `c1ccc2c(c1)nc(-c1ccc(N3CCOCC3)cc1)c1cccn12` [Compound 9j, 4-(4-(Pyrrolo[1,2-a]quinoxalin-4-yl)phenyl)morpholine], the “D-loop inhibitory activity (in words)” value in test [2] is listed as “allow for D-loop inhibition”.
Consider `c1ccc2c(c1)nc(-c1ccncc1)c1cccn12` [Compound 11b, 4-(Pyridin-4-yl)pyrrolo[1,2-a]quinoxaline], for which, in test [2], the “D-loop inhibitory activity (in words)” value is “moderate”.
On to `CN(C)c1ccc(-c2nc3ccccc3n3cccc23)cc1` [Compound 9a, N,N-Dimethyl-4-(pyrrolo[1,2-a]quinoxalin-4-yl)aniline], for which the “D-loop inhibitory activity (in words)” value in test [2] is “allow for D-loop inhibition”. Further, in test [1], the “influence” value was “modest influence” and the “ssDNA binding IC50” value is given as “Stim”.
As to `Nc1ccc(-c2nc3ccccc3n3cccc23)cc1` [Compound 9g, 4-(Pyrrolo[1,2-a]quinoxalin-4-yl)aniline], the “D-loop inhibitory activity (in words)” value in test [2] is “allow for D-loop inhibition”.
For the compound `CN(C)c1ccc(-c2nc3cc(O)ccc3n3cccc23)cc1` [Compound 12g, 4-(4-(Dimethylamino)phenyl)pyrrolo[1,2-a]quinoxalin-7-ol], in test [1], the “influence” value is on record as “only weakly influenced” and the “ssDNA binding IC50” value is listed as “Stim”. Moreover, the “inhibitory activity in cell-based HR assay (in words)” value in test [3] is “comparable or slightly less inhibitory activity”.
Turning to `Oc1ccc2c(c1)nc(-c1cccnc1)c1cccn12` [Compound 13b, 4-(Pyridin-3-yl)pyrrolo[1,2-a]quinoxalin-7-ol], in test [2], the “D-loop inhibitory activity (in words)” value is recorded as “slight improvement”.
Regarding `CCCOc1ccc2c(c1)nc(-c1ccc(N)cc1)c1cccn12` [Compound 15a, 4-(7-Propoxypyrrolo[1,2-a]quinoxalin-4-yl)aniline], in test [1], the “influence” value is recorded as “stimulators” and the “ssDNA binding IC50” value is listed as “Stim”.
In the case of `COc1ccc2c(c1)nc(-c1ccc(N(C)C)cc1)c1cccn12` [Compound 8, 4-(7-Methoxypyrrolo[1,2-a]quinoxalin-4-yl)-N,N-dimethylaniline], in test [1], the “ssDNA binding IC50” value is recorded as “Stim”.
`COc1ccc2c(c1)nc(-c1ccc(O)cc1)c1cccn12` [Compound 12a, 4-(7-Methoxypyrrolo[1,2-a]quinoxalin-4-yl)phenol]: the “influence” value in test [1] is “relatively strong ssDNA binding inhibition”.
Turning to `Nc1ccc(-c2nc3cc(O)ccc3n3cccc23)cc1` [Compound 12f, 4-(4-Aminophenyl)pyrrolo[1,2-a]quinoxalin-7-ol], the “influence” value in test [1] is given as “modest effects”. Further, the “inhibitory activity in cell-based HR assay (in words)” value in test [3] is “comparable or slightly less inhibitory activity”.
`Oc1ccc(-c2nc3ccccc3n3cccc23)cc1` [Compound 9d, 4-(Pyrrolo[1,2-a]quinoxalin-4-yl)phenol]: in test [2], the “D-loop inhibitory activity (in words)” value is listed as “significantly decreased”.
For `c1ccc2c(c1)nc(-c1ccc(N3CCCC3)cc1)c1cccn12` [Compound 9i, 4-(4-(Pyrrolidin-1-yl)phenyl)pyrrolo[1,2-a]quinoxaline], the “D-loop inhibitory activity (in words)” value in test [2] is listed as “significantly decreased”. In addition, in test [1], the “influence” value is given as “modest influence” and the “ssDNA binding IC50” value is recorded as “Stim”.
Turning to `CN(C)c1ccc(-c2nc3cc(OC(C)(C)C(N)=O)ccc3n3cccc23)cc1` [Compound 16, 2-((4-(4-(Dimethylamino)phenyl)pyrrolo[1,2-a]quinoxalin-7-yl)-oxy)-2-methylpropanamide], in test [1], the “influence” value is recorded as “stimulators” and the “ssDNA binding IC50” value is recorded as “Stim”.
